Experimental findings from patent publication US20260007133A1, “HERBICIDAL COMPOSITION COMPRISING AZINE COMPOUNDS” (BASF SE, priority 2022, published 2026) are described below.

Holding throughout (type): in vivo
In assay [1] the test system is Euphorbia heterophylla. Briefly: Greenhouse pre-emergence (PRE) herbicidal test on EPHHL. The note with it: Euphorbia heterophylla, pre-emergence. The method in brief: (§1)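 Pre-emergence greenhouse assay: sown loamy-sand pots (humus approx. 3.0%) were kept under transparent hoods until rooting, then grown at species-appropriate 10-25° C or 20-35° C. Response ratings of 0 (no damage) to 100 (no plants emerged) were recorded 20 days after application.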

Assay [2] relates to Amaranthus retroflexus. The assay can be described thus: Greenhouse pre-emergence (PRE) herbicidal test on AMARE. The protocol: The culture containers used were plastic pots containing loamy sand with approximately 3.0% of humus as substrate. The seeds of the test plants were sown separately for each species.
The containers were irrigated gently to promote germination and growth and subsequently covered with transparent plastic hoods until the plants had rooted.
Depending on the species, the plants were kept at 10-25° C. and 20-35° C., respectively.
The test period extended over 2 to 4 weeks. During this time, the plants were tended and their response to the individual treatments was evaluated.
Evaluation was carried out using a scale from 0 to 100. 100 means no emergence of the plants, or complete destruction of at least the above-ground parts, and 0 means no damage or normal course of growth. A good herbicidal activity is given at values of at least 70, and very good herbicidal activity is given at values of at least 85.
As indicated application was either post emergent (POST) at the respective growth stage (GS) of the weed (BBCH code), or pre-emergent (PRE). […]

In assay [3] the test system is Lolium multiflorum. Briefly: Greenhouse pre-emergence (PRE) herbicidal test on LOLMU. The following applies: Lolium multiflorum, pre-emergence. The method in brief:
as §1

For assay [4], the system named is Alopecurus myosuroides. Briefly: Greenhouse pre-emergence (PRE) herbicidal test on ALOMY. The note with it: Alopecurus myosuroides, pre-emergence. The method in brief:
as §1

The subject of assay [5] is Commelina benghalensis. The assay can be described thus: Greenhouse pre-emergence (PRE) herbicidal test on COMBE. The procedure, abridged: as §1
Assay [6] has as its system Ambrosia artemisiifolia. The assay can be described thus: Greenhouse pre-emergence (PRE) herbicidal test on AMBEL. The note with it: for % activity: AMBEL PRE.
In assay [7] the test system is Amaranthus retroflexus. The assay can be described thus: Greenhouse post-emergence (POST) herbicidal test on AMARE. The following applies: Amaranthus retroflexus, post-emergence. The procedure, abridged:
(§2)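 For this test, compounds formulated as a 5% by weight emulsion concentrate were diluted into spray liquor and applied post-emergence. Species were kept at 10-25° C or 20-35° C and injury was scored at 20 DAT on a 0–100 scale.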

Assay [8] has as its system Echinochloa crus-galli. Briefly: Greenhouse pre-emergence (PRE) herbicidal test on ECHCG. The note with it: Echinochloa crus-galli, pre-emergence.
In assay [9] the test system is Geranium pusillum. The assay can be described thus: Greenhouse post-emergence (POST) herbicidal test on GERPU. The note with it: Geranium pusillum, post-emergence, 432 h, read-out: % activity. The procedure, abridged: as §2
The subject of assay [10] is Euphorbia heterophylla. Briefly: Greenhouse post-emergence (POST) herbicidal test on EPHHL. The following applies: Euphorbia heterophylla, post-emergence, 432 h, read-out: % activity. The method in brief: as §2
The subject of assay [11] is Abutilon theophrasti. Briefly: Greenhouse post-emergence (POST) herbicidal test on ABUTH. The note with it: Abutilon theophrasti, post-emergence. The method in brief:
as §2

Assay [12] relates to Abutilon theophrasti. The assay can be described thus: Greenhouse pre-emergence (PRE) herbicidal test on ABUTH. The following applies: Abutilon theophrasti, pre-emergence. The method in brief:
as §1

In assay [13] the test system is Digitaria sanguinalis. The assay can be described thus: Greenhouse post-emergence (POST) herbicidal test on DIGSA. The following applies: Digitaria sanguinalis, post-emergence. The method in brief:
as §2

Assay [14] concerns Echinochloa crus-galli. The assay can be described thus: Greenhouse post-emergence (POST) herbicidal test on ECHCG. The following applies: Echinochloa crus-galli, post-emergence, 432 h. The procedure, abridged:
as §2

[15] abbreviates: Commelina benghalensis, pre-emergence, 480 h, read-out: % activity.
[16] abbreviates: Ambrosia artemisiifolia, pre-emergence, 480 h, read-out: % activity.
Where [17] appears, read: Ambrosia artemisiifolia, pre-emergence, 432 h, read-out: % activity.

As to `CCOC(=O)C(C)Oc1ccc(Oc2cnc3cc(Cl)ccc3n2)cc1` (stereo not drawn) [Quizalofop-Ethyl, quizalofop-ethyl], the pest or weed control at 4 g/ha in assay [1] (480 h, read-out: % activity) is 5%; in [2] (Amaranthus retroflexus, pre-emergence, 480 h, read-out: % activity), 0%; in assay [3] (480 h, read-out: % activity) it was 0%; in assay [5] (setting [15]), 0%; in assay [6] (setting [16]), 0%. In addition, the pest or weed control at 2 g/ha was 0% in [3] (480 h, read-out: % activity); 0% in assay [4] (480 h, read-out: % activity); 0% in assay [5] (setting [15]); 0% in assay [6] (setting [16]).
In the case of `COc1c(Cl)ccc(-c2nc(C(=O)OCc3ccccc3)c(Cl)c(N)c2F)c1F` [Florpyrauxifen-Benzyl, florpyrauxifen-benzyl], the “% activity” value is recorded as 0% in assay [2] (AMARE PRE, use rate 5 gai/ha); 45% in assay [5] (COMBE PRE, use rate 5 gai/ha); 30% in [6] (use rate 1.25 gai/ha); 45% in assay [6] (use rate 5 gai/ha).
Consider `CCC(=O)Nc1ccc(Cl)c(Cl)c1` [Propanil, propanil], for which the pest or weed control at 250 g/ha in assay [7] (432 h, read-out: % activity) turned out to be 0%; in assay [8] (432 h, read-out: % activity), 0%; in assay [10] it was 0%; in assay [1] (432 h, read-out: % activity), 0%; in assay [11] (432 h, read-out: % activity), 0%; in assay [13] (432 h, read-out: % activity), 10%. Besides, the pest or weed control at 250 g/ha in assay [14] (read-out: % activity) was 0%; in [3] (432 h, read-out: % activity) it was 0%; in assay [4] (432 h, read-out: % activity) it was 0%; in assay [5] (Commelina benghalensis, pre-emergence, 432 h, read-out: % activity), 0%; in assay [6] (setting [17]), 0%. Besides, the pest or weed control at 500 g/ha in [7] (432 h, read-out: % activity) is 0%; in assay [8] (432 h, read-out: % activity), 0%; in assay [9], 40%; in assay [11] (432 h, read-out: % activity) it was 5%; in assay [12] (432 h, read-out: % activity), 0%; in assay [13] (432 h, read-out: % activity) it was 10%. Moreover, the pest or weed control at 500 g/ha was found to be 0% in assay [2] (Amaranthus retroflexus, pre-emergence, 432 h, read-out: % activity); 0% in assay [14] (read-out: % activity); 0% in assay [3] (432 h, read-out: % activity); 0% in assay [4] (432 h, read-out: % activity); 0% in [6] (setting [17]). Also, the inhibition at 250 g/ha in assay [13] (432 h, POST, DIGSA, 250 gai/ha, 18 DAT, read-out: % activity solo application) turned out to be 10%; in assay [14] (POST, ECHCG, 250 gai/ha, 18 DAT, read-out: % activity solo application), 0%; in [3] (432 h, PRE, LOLMU, 250 gai/ha, 18 DAT, read-out: % activity solo application), 0%. In addition, the inhibition at 500 g/ha came out at 0% in [14] (POST, ECHCG, 500 gai/ha, 18 DAT, read-out: % activity solo application) and 0% in assay [3] (432 h, PRE, LOLMU, 500 gai/ha, 18 DAT, read-out: % activity solo application).
Turning to `CS(=O)(=O)NC(=O)c1cc(Oc2ccc(C(F)(F)F)cc2Cl)ccc1[N+](=O)[O-]` [Fomesafen, fomesafen], the inhibition at 10 g/ha stood at 25% in [7] (480 h, POST, AMARE, use rate 10 gai/ha, 20 DAT, read-out: solo application % activity); 0% in assay [8] (480 h, PRE, ECHCG, use rate 10 gai/ha, 20 DAT, read-out: solo application % activity); 0% in assay [1] (480 h, PRE, EPHHL, use rate 10 gai/ha, 20 DAT, read-out: solo application % activity); 20% in assay [11] (480 h, POST, ABUTH, use rate 10 gai/ha, 20 DAT, read-out: solo application % activity); 0% in assay [12] (480 h, PRE, ABUTH, use rate 10 gai/ha, 20 DAT, read-out: solo application % activity); 25% in assay [13] (480 h, POST, DIGSA, use rate 10 gai/ha, 20 DAT, read-out: solo application % activity). The inhibition at 10 g/ha came out at 25% in assay [2] (Amaranthus retroflexus, pre-emergence, 480 h, PRE, AMARE, use rate 10 gai/ha, 20 DAT, read-out: solo application % activity); 0% in [3] (480 h, PRE, LOLMU, use rate 10 gai/ha, 20 DAT, read-out: solo application % activity); 0% in [4] (480 h, PRE, ALOMY, use rate 10 gai/ha, 20 DAT, read-out: solo application % activity); 10% in assay [5] (Commelina benghalensis, pre-emergence, 480 h, PRE, COMBE, use rate 10 gai/ha, 20 DAT, read-out: solo application % activity); 0% in assay [6] (Ambrosia artemisiifolia, pre-emergence, 480 h, PRE, AMBEL, use rate 10 gai/ha, 20 DAT, read-out: solo application % activity). In addition, the inhibition at […] turned out to be 0% in [8] (480 h, PRE, ECHCG, use rate 2.5 gai/ha, 20 DAT, read-out: solo application % activity); 0% in assay [1] (480 h, PRE, EPHHL, use rate 2.5 gai/ha, 20 DAT, read-out: solo application % activity); 20% in [11] (480 h, POST, ABUTH, use rate 2.5 gai/ha, 20 DAT, read-out: solo application % activity); 0% in assay [12] (480 h, PRE, ABUTH, use rate 2.5 gai/ha, 20 DAT, read-out: solo application % activity); 0% in [2] (Amaranthus retroflexus, pre-emergence, 480 h, PRE, AMARE, use rate 2.5 gai/ha, 20 DAT, read-out: solo application % activity); 0% in [3] (480 h, PRE, LOLMU, use rate 2.5 gai/ha, 20 DAT, read-out: solo application % activity). For the same compound, the inhibition at […] in assay [4] (480 h, PRE, ALOMY, use rate 2.5 gai/ha, 20 DAT, read-out: solo application % activity) stood at 0%; in [5] (Commelina benghalensis, pre-emergence, 480 h, PRE, COMBE, use rate 2.5 gai/ha, 20 DAT, read-out: solo application % activity), 10%; in [6] (Ambrosia artemisiifolia, pre-emergence, 480 h, PRE, AMBEL, use rate 2.5 gai/ha, 20 DAT, read-out: solo application % activity) it was 0%.
